Experimental data: US6486185B1, “3-heteroarylidene-2-indolinone protein kinase inhibitors” (Sugen, Inc., priority 1997, dated 2002)

Legend:
[1] = biological target: T1, IGF-1R (Homo sapiens, UniProt P08069); test: IGF-I receptor ELISA in 3T3/IGF-1R cells; assay type: cell-based; settings: 50% inhibition of PTK activity over control
T1 construct: expressed in transfected cells; host or cells: NIH3T3 (3T3/IGF-1R)
Protocol: (§1) The cellular/catalytic assays described herein are performed in an ELISA format. The general procedure is a follows: a compound is introduced to cells expressing the test kinase, either naturally or recombinantly, for some period of time after which, if the test kinase is a receptor, a ligand known to activate the receptor's activity is added. The cells are lysed and the lysate is transferred to the wells of an ELISA plate previously coated with a specific antibody recognizing the substrate of the enzymatic phosphorylation reaction. Non-substrate components of the cell lysate are washed away and the amount of phosphorylation on the substrate is detected with an antibody specifically recognizing phosphotyrosine compared with control cells that were not contacted with a test compound.
The following protocol may be used to measure phosphotyrosine level on IGF-I receptor, which indicates IGF-I receptor tyrosine kinase activity.
The following materials and reagents are used:
a. The cell line used in this assay is 3T3/IGF-1R, a cell line genetically engineered to overexpresses IGF-1 receptor.
b. NIH3T3/IGF-1R is grown in an incubator with 5% CO2 at 37° C. The growth media is DMEM+10% FBS (heat inactivated)+2 mM L-glutamine.
c. Affinity purified anti-IGF-1R antibody 17-69.
e. Blocking Buffer: TBST plus 5% Milk (Carnation Instant Non-Fat Dry Milk).
Stock solution of TBS (10×) is prepared, and Triton X-100 is added to the buffer during dilution.
Stock solution (5×) is prepared and kept at 4° C.
h. EDTA/HCl: 0.5 M pH 7.0 (NaOH) as 100×stock.
i. Na3VO4: 0.5 M as 100×stock and aliquots are kept in −80° C.
k. Insulin-like growth factor-1 from Promega (Cat# G5111).
l. Rabbit polyclonal anti-phosphotyrosine antiserum.
m. Goat anti-rabbit IgG, POD conjugate (detection antibody), Tago (Cat. No. 4520, Lot No. 1802): Tago, Inc., Burlingame, Calif.
n. ABTS (2,2′-azinobis(3-ethylbenzthiazolinesulfonic acid)) solution:
ABTS solution should be kept in dark and 4° C. The solution should be discarded when it turns green.
o. Hydrogen Peroxide: 30% solution is kept in the dark and at 4° C.
All the following steps are conducted at room temperature unless it is specifically indicated. All ELISA plate washings are performed by rinsing the plate with tap water three times, followed by one TBST rinse. Pat plate dry with paper towels.
1. The cells, grown in tissue culture dish (Corning 25020-100) to 80-90% confluence, are harvested with Trypsin-EDTA (0.25%, 0.5 mL/D-100, GIBCO).
2. Resuspend the cells in fresh DMEM+10% FBS+2 mM L-Glutamine, and transfer to 96-well tissue culture plate (Corning, 25806-96) at 20,000 cells/well (100 μL/well). Incubate for 1 day then replace medium to serum-free medium (90/μL) and incubate in 5% CO2 and 37° C. overnight.
B. ELISA Plate Coating and Blocking:
1. Coat the ELISA plate (Corning 25805-96) with Anti-IGF-1R Antibody at 0.5 μg/well in 100 μL PBS at least 2 hours.
2. Remove the coating solution, and replace with 100 μL Blocking Buffer, and shake for 30 minutes. Remove the blocking buffer and wash the plate just before adding lysate.
1. The drugs are tested in serum-free condition.
2. Dilute drug stock (in 100% DMSO) 1:10 with DMEM in 96-well poly-propylene plate, and transfer 10 μL/well of this solution to the cells to achieve final drug dilution 1:100, and final DMSO concentration of 1.0%. Incubate the cells in 5% CO2 at 37° C. for 2 hours.
3. Prepare fresh cell lysis buffer (HNTG*)
4. After drug incubation for two hours, transfer 10 μL/well of 200 nM IGF-1 Ligand in PBS to the cells (Final Conc.=20 nM), and incubate at 5% CO2 at 37° C. for 10 minutes.
5. Remove media and add 100 μL/well HNTG* and shake for 10 minutes. Look at cells under microscope to see if they are adequately lysed.
6. Use a 12-channel pipette to scrape the cells from the plate, and homogenize the lysate.by repeated aspiration and dispensing. Transfer all the lysate to the antibody coated ELISA plate, and shake for 1 hour.
7. […]

[2] = biological target: T2, EGFR (Homo sapiens, UniProt P00533); test: EGF receptor ELISA in cells engineered to express human EGF-R; assay type: cell-based; settings: 50% inhibition of PTK activity over control
T2 construct: expressed in transfected cells; host or cells: NIH 3T3/C7
Protocol: as §1
EGF Receptor kinase activity in cells genetically engineered to express human EGF-R can be measured as described below:
The following materials and reagents are used
a. EGF Ligand: stock concentration=16.5 μM; EGF 201, TOYOBO, Co., Ltd. Japan.
b. 05-101 (UBI) (a monoclonal antibody recognizing an EGFR extracellular domain).
c. Anti-phosphotyosine antibody (anti-Ptyr) (polyclonal).
d. Detection antibody: Goat anti-rabbit lgG horse radish peroxidase conjugate, TAGO, Inc., Burlingame, Calif.
Keep solution in dark at 4 C until used.
The following protocol is used:
1. Coat ELISA plates (Corning, 96 well, Cat. #25805-96) with 05-101 antibody at 0.5 μg per well in PBS, 150 μL final volume/well, and store overnight at 4° C. Coated plates are good for up to 10 days when stored at 4° C.
2. On day of use, remove coating buffer and replace with blocking buffer (5% Carnation Instant NonFat Dry Milk in PBS). Incubate the plate, shaking, at room temperature (about 23° C. to 25° C.) for 30 minutes. Just prior to use, remove blocking buffer and wash plate 4 times with TBST buffer.
1. NIH 3T3/C7 cell line (Honegger, et al., Cell 51:199-209, 1987) can be use for this assay.
2. Choose dishes having 80-90% confluence for the experiment. Trypsinize cells and stop reaction by adding 10% CS DMEM medium. Suspend cells in DMEM medium (10% CS DMEM medium) and centrifuge once at 1000 rpm at room temperature for 5 minutes.
3. Resuspend cells in seeding medium (DMEM, 0.5% bovine serum), and count the cells using trypan blue. Viability above 90% is acceptable. Seed cells in DMEM medium (0.5% bovine serum) at a density of 10,000 cells per well, 100 μL per well, in a 96 well microtiter plate. Incubate seeded cells in 5% CO2 at 37° C. for about 40 hours.
1. Check seeded cells for contamination using an inverted microscope. Dilute drug stock (10 mg/mL in DMSO) 1:10 in DMEM medium, then transfer 5 μL to a test well for a final drug dilution of 1:200 and a final DMSO concentration of 1%. Control wells receive DMSO alone. Incubate in 5% CO2 at 37° C. for one hour.
2. Prepare EGF ligand: dilute stock EGF in DMEM so that upon transfer of 10 μL dilute EGF (1:12 dilution), 25 nM final concentration is attained.
3. Prepare fresh 10 mL HNTG* sufficient for 100 μL per well wherein HNTG* comprises: HNTG stock (2.0 mL), milli-Q H2O (7.3 mL), EDTA, 100 mM, pH 7.0 (0.5 mL), Na3VO4 0.5 M (0.1 mL) and Na4(P2O7), 0.2 M (0.1 mL).
5. After two hours incubation with drug, add prepared EGF ligand to cells, 10 μL per well, to yield a final concentration of 25 nM. Control wells receive DMEM alone. Incubate, shaking, at room temperature, for 5 minutes.
6. Remove drug, EGF, and DMEM. Wash cells twice with PBS. Transfer HNTG* to cells, 100 μL per well. Place on ice for 5 minutes. Meanwhile, remove blocking buffer from other ELISA plate and wash with TBST as described above.
7. With a pipette tip securely fitted to a micropipettor, scrape cells from plate and homogenize cell material by repeatedly aspirating and dispensing the HNTG* lysis buffer. Transfer lysate to a coated, blocked, and washed ELISA plate. Incubate shaking at room temperature for one hour.
8. Remove lysate and wash 4 times with TBST. […]

T2 sequence (P00533 25-1210): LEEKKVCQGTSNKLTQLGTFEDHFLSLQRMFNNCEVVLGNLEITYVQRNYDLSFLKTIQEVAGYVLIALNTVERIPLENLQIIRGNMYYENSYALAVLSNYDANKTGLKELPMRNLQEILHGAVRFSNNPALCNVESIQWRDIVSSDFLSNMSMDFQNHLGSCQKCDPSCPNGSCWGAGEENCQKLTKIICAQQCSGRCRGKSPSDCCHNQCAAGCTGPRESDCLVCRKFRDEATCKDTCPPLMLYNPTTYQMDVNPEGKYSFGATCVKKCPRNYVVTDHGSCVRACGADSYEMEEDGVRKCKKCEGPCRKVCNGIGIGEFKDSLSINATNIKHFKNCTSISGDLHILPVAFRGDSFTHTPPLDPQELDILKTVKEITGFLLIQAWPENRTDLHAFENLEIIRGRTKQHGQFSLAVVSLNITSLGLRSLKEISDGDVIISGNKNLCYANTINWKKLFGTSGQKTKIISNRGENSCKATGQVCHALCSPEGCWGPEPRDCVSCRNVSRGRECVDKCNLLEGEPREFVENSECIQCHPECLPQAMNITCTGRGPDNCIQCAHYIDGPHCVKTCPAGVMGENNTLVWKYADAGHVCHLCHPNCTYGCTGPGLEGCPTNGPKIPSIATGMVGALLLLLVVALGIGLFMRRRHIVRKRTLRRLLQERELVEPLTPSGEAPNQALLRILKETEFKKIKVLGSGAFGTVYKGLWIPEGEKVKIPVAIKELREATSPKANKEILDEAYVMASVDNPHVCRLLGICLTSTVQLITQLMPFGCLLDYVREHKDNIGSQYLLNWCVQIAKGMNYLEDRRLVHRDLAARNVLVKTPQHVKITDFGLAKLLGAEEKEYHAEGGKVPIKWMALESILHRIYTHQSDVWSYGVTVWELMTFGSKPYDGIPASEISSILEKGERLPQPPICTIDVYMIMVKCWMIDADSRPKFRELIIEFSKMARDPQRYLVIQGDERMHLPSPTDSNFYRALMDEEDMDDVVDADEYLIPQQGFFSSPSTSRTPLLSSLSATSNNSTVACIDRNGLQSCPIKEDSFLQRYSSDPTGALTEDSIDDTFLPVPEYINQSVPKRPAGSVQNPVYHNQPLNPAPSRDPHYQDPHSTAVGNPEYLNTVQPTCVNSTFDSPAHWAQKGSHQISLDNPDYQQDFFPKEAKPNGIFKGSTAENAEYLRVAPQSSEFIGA
T1 sequence (P08069 31-1367, species assumed): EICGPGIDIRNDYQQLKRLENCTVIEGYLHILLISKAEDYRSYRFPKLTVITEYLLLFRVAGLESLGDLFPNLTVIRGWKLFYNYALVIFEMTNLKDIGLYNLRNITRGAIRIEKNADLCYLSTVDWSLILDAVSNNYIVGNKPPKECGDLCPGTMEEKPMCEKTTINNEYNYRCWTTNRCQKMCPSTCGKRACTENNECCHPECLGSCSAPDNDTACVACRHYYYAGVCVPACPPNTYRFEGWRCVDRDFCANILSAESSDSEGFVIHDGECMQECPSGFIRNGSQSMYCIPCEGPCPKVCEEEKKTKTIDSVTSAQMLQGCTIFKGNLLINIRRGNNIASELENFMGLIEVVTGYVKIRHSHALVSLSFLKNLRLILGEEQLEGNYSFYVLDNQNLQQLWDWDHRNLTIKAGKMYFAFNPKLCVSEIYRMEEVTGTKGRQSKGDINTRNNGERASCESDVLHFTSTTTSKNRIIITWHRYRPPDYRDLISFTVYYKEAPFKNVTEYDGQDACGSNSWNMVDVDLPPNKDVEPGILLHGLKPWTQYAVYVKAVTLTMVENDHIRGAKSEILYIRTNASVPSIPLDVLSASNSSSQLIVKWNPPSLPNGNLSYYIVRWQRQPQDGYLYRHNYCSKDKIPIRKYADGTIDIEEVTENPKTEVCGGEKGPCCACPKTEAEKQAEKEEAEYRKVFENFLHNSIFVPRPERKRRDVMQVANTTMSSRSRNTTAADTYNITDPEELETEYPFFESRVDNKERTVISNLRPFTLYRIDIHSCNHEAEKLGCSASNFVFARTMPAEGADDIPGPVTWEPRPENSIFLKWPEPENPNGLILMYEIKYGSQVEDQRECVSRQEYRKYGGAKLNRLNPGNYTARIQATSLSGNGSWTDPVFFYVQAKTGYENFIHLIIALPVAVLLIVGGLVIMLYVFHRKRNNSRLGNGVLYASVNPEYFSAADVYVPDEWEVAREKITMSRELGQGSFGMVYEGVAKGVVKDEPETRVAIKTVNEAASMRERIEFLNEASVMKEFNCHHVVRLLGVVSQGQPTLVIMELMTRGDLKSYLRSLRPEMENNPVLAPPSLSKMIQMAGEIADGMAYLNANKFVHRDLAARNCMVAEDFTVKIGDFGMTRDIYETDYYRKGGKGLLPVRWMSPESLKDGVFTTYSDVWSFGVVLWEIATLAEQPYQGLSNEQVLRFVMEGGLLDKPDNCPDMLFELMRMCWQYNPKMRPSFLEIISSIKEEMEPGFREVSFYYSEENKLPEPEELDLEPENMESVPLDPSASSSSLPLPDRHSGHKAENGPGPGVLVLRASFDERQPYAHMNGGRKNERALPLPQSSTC

Row | Compound | IC50 [1] | IC50 [2]
1 | CCc1c(C=C2C(=O)Nc3ccccc32)[nH]c(C(=O)O)c1C [3-(2-carboxy-4-ethyl-3-methylpyrrol-5-methylidenyl)-2-indolinone] | > 100 µM | > 100 µM
2 | CCOC(=O)c1c(C)[nH]c(C=C2C(=O)Nc3ccccc32)c1C [3-(2,4-dimethyl-3-ethoxycarbonylpyrrol-5-methylidenyl)-2-indolinone] | > 100 µM | > 100 µM
